The source of these data is ChEMBL document CHEMBL4831532.

The source made the active and inactive calls. The calls are words filed in the database; no cut-off is given here.

What is called EC50 is the concentration at which the effect is half-maximal. By CC50 is commonly meant the concentration at which the toxic effect on the cells reaches its halfway point. A word on the Ki: it is a measure of affinity in units of concentration, obtained from inhibition or displacement. The IC50 is the concentration needed to halve the response being measured.

In data set [1] the test system is SARS-CoV-2. In words: microbe, parasite or virus in culture. Particulars: Severe acute respiratory syndrome coronavirus 2, JPN/TY/WK-251, Vero C1008, 72 h.
In data set [2] the test system is SARS-CoV-2. In kind it is functional, Severe acute respiratory syndrome coronavirus 2, JPN/TY/WK-251, Vero E6.
Data set [3] relates to SARS-CoV-2. In kind it is functional, Severe acute respiratory syndrome coronavirus 2, JPN/TY/WK-251, Vero E6. The conditions noted are these: dose 1-100 µM; time 72 hrs; at 1 to 100 µM.
Data set [4] relates to SARS-CoV-2. Type of data set: functional, organism-based. The conditions noted are these: Severe acute respiratory syndrome coronavirus 2; JPN/TY/WK-251; Vero E6; dose 10.0 µM, time 3.0 day.
Data set [5] deals with Vero C1008. The data set can be described thus: Cytotoxicity against African green monkey Vero E6 cells incubated for 3 days. Type of data set: cell-based. Particulars: chlorocebus sabaeus, vero c1008, 72 h; time 3 day.
Data set [6] is described as follows: Binding affinity to SARS-CoV-2 3CL protease. Also noted: species or system Severe acute respiratory syndrome coronavirus 2.
The nature of data set [7]: Inhibition of SARS-CoV-2 3CL protease using HiyteFluor-488ESATL-QSGLRKAK-(QXL)-NH2 fluorogenic peptide as substrate preincubated for 15 mins followed by substrate addition and measured after 30 mins by FRET assay. The arrangement: species or system Severe acute respiratory syndrome coronavirus 2.

The compound `COc1cccc2[nH]c(C(=O)Oc3cncc(Cl)c3)cc12` displayed an EC50 in data set [1] of 8.1 µM. `O=C(Oc1cncc(Cl)c1)c1ccc2[nH]ccc2c1`: it took 43.7 µM to reach a half-maximal effect in data set [1] (EC50). `O=C(Nc1cncc(Cl)c1)c1cccc2[nH]ccc12` came in with an EC50 in data set [1] greater than 100 µM. In the case of `O=C(Oc1cncc(Cl)c1)c1ccc2c(ccn2S(=O)(=O)c2cccc([N+](=O)[O-])c2)c1`, in data set [1], the EC50 came out at 69.8 µM. For the compound `O=C(Oc1cncc(Cl)c1)c1cc(F)cc2[nH]ccc12`, in data set [1], the EC50 amounted to 14 µM. Take `O=C(Oc1cncc(Cl)c1)c1cccc2[nH]ccc12`: the Activity in data set [2] (dose 100 µM, time 3 day) turned out to be 100%; in data set [3], 100%. Also, in data set [4], the outcome was Active. In addition, the CC50 in data set [5] is greater than 100 µM. Compound `COc1cccc2[nH]c(C(=O)N[C@@H](CC(C)C)C(=O)N[C@@H](C[C@@H]3CCNC3=O)C(=O)c3nc4ccccc4s3)cc12` showed a Ki in data set [6] of 17.6 nM.

As to `Cc1cc(C(=O)Oc2cncc(Cl)c2)c2cc[nH]c2c1`, the EC50 in data set [1] came to 3.1 µM.

`Cc1ccc2[nH]ccc2c1C(=O)Oc1cncc(Cl)c1` showed an EC50 in data set [1] greater than 100 µM. `O=C(Nc1cccc(Cl)c1)c1cccc2[nH]ccc12` had a half-inhibitory concentration (IC50) in data set [7] of 100 µM. In data set [1], this compound came in with an EC50 greater than 100 µM. As for `O=C(Oc1cncc(Cl)c1)c1cccc2c1CCN2`, the Activity in data set [2] (dose 100 µM, time 3 day) was 100%. Also, the outcome in data set [4] was Active. The compound also yielded an IC50 in data set [7] of 0.32 µM. Besides, a half-maximal effect in data set [1] (EC50) was put at 15 µM.

Turning to `Cc1c(Cl)cncc1OC(=O)c1cccc2[nH]ccc12`, a half-maximal response in data set [1] (EC50) required 19.3 µM. `Cc1nc2c(C(=O)Oc3cncc(Cl)c3)cccc2[nH]1`: it took 57.1 µM to reach a half-maximal effect in data set [1] (EC50). Regarding `C=CCn1ccc2c(C(=O)Oc3cncc(Cl)c3)cccc21`, in data set [1], the EC50 turned out to be 15 µM. Regarding `Cc1ncc(OC(=O)c2cccc3[nH]ccc23)cc1Cl`, the EC50 in data set [1] was determined as 30 µM. On the same count and under the same terms, to `Cc1c[nH]c2cccc(C(=O)Oc3cncc(Cl)c3)c12` belongs 56.7 µM. For the compound `CCC(CC)COC(=O)[C@H](C)N[P@](=O)(OC[C@H]1O[C@@](C#N)(c2ccc3c(N)ncnn23)[C@H](O)[C@@H]1O)Oc1ccccc1`, the Activity result in data set [2] (Severe acute respiratory syndrome coronavirus 2, JPN/TY/WK-251, Vero E6, dose 100.0 µM, time 3.0 day) was “Active”; in data set [4], “Active”. Moreover, the Activity in data set [3] is on record as 100%. Turning to `O=C(Oc1cncc(Cl)c1)c1cccc2c1OCCN2`, in data set [1], the 50% effective concentration (EC50) is greater than 100 µM. As for `O=C(Oc1cncc(Cl)c1)c1cccc2[nH]cnc12`, the EC50 in data set [1] is greater than 100 µM. `Cc1ncc(Cl)cc1OC(=O)c1cccc2[nH]ccc12` registered a 50% inhibitory concentration (IC50) in data set [7] greater than 100 µM. Also, the concentration for a half-maximal effect (EC50) in data set [1] was greater than 100 µM. For the compound `O=C(Oc1cncc(Cl)c1)c1cccc2ncoc12`, the EC50 in data set [1] was greater than 100 µM. `C=CCc1cn(CC=C)c2cccc(C(=O)Oc3cncc(Cl)c3)c12` showed an EC50 in data set [1] of 11.5 µM. In turn, `Cc1ncc(OC(=O)c2cccc3[nH]cnc23)cc1Cl` displayed an EC50 in data set [1] of 57 µM.
